Source: US12144351B2, “Herbicidal mixtures comprising L-glufosinate and their use in corn cultures” (priority 2017, dated 2024)

Legend:
Experiment in all cases: Post emergence treatment, greenhouse pot test, herbicidal activity
Assay type in all cases: in vivo
Conditions in all cases: scale 0 to 100
[1] = system: AVEFA (Avena fatua)
Experimental: (§1) The analysis of synergism or antagonism between the mixtures or compositions was determined using Colby's equation.
(§2) The culture containers used were plastic flowerpots containing loamy sand with approximately 3.0% of humus as the substrate. The seeds of the test plants were sown separately for each species and/or resistant biotype. […] The containers were irrigated gently to promote germination and growth and subsequently covered with transparent plastic hoods until the plants had rooted. This cover caused uniform germination of the test plants, unless this had been impaired by the active ingredients. […] For this purpose, the test plants were either sown directly and grown in the same containers, or they were first grown separately as seedlings and transplanted into the test containers a few days prior to treatment. Depending on the species, the plants were kept at 10-25° C. or 20-35° C., respectively. The test period extended to 20 days after treatment. During this time, the plants were tended, and their response to the individual treatments was evaluated. The evaluation was carried out by using a scale from 0 to 100. 100 means no emergence of the plants or complete destruction of at least the above-ground parts, and 0 means no damage, or normal course of growth. Data shown are the mean of two replications.

[2] = system: SETVI (Setaria viridis)
Experimental: as §1, §2

[3] = system: ECHCG (Echinochloa crus-galli)
Experimental: as §1, §2

[4] = system: CHEAL (Chenopodium album)
Experimental: as §1, §2

[5] = system: ABUTH (Abutilon theophrasti)
Experimental: as §1, §2

[6] = system: COMBE (Commelina benghalensis)
Experimental: as §1, §2

[7] = system: KCHSC (Kochia scoparia)
Experimental: as §1, §2

[8] = 2,4-D as dimethylammonium salt 70 g ai/ha
[9] = 2,4-D as dimethylammonium salt 140 g ai/ha

In the case of `CNC.O=C(O)COc1ccc(Cl)cc1Cl` [2,4-D as dimethylammonium salt, 2,4-D dimethylammonium salt], the “Herbicidal activity against AVEFA, Found” value [1, 8] is reported as 0, the “Herbicidal activity against AVEFA, Found” value [1, 9] is reported as 0 and the “Herbicidal activity against SETVI, Found” value [2, 8] is reported as 0. For the same molecule, the “Herbicidal activity against SETVI, Found” value [2, 9] was 0.

In the case of `C#CCN1C(=O)C(F)(F)Oc2cc(F)c(-n3c(=O)n(C)c(=S)n(C)c3=O)cc21` [Trifludimoxazin, trifludimoxazin], the “Herbicidal activity against ECHCG, Found” value ([3]; Trifludimoxazin 0.25 g ai/ha) is reported as 10.

In the case of `CCc1cccc(C)c1N(C(=O)CCl)[C@@H](C)COC` [S-Metolachlor, S-metolachlor], the “Herbicidal activity against CHEAL, Found” value ([4]; S-Metolachlor 500 g ai/ha) is reported as 20 and the “Herbicidal activity against CHEAL, Found” value ([4]; S-Metolachlor 1000 g ai/ha) is reported as 75.

For “Dicamba dimethylammonium salt [Dicamba as dimethylammonium salt]”, the “Herbicidal activity against SETVI, Found” value ([2]; Dicamba as dimethylammonium salt 35 g ai/ha) was 0, the “Herbicidal activity against SETVI, Found” value ([2]; Dicamba as dimethylammonium salt 70 g ai/ha) was 0 and the “Herbicidal activity against SETVI, Found” value ([2]; Dicamba as dimethylammonium salt 140 g ai/ha) was 30.

With `CCOCCN(C(=O)CCl)C(=C(C)C)c1ccccc1` [Pethoxamid, pethoxamid] the “Herbicidal activity against ABUTH, Found” value ([5]; Pethoxamid 50 g ai/ha) was 0, the “Herbicidal activity against ABUTH, Found” value ([5]; Pethoxamid 100 g ai/ha) was 0 and the “Herbicidal activity against AVEFA, Found” value ([1]; Pethoxamid 50 g ai/ha) was 0. The “Herbicidal activity against AVEFA, Found” value ([1]; Pethoxamid 100 g ai/ha) was 0.

`CP(=O)(O)CC[C@H](N)C(=O)O` [L-Glufosinate, (2S)-2-amino-4-[hydroxy(methyl)phosphinoyl]butyric acid] was tested, and the “Herbicidal activity against ABUTH, Found” value ([5]; L-Glufosinate 75 g ai/ha) was 0, the “Herbicidal activity against ABUTH, Found” value ([5]; L-Glufosinate 150 g ai/ha) was 55 and the “Herbicidal activity against ABUTH, Found” value ([5]; L-Glufosinate 200 g ai/ha) was 65. The “Herbicidal activity against AVEFA, Found” value ([1]; L-Glufosinate 75 g ai/ha) was 0, the “Herbicidal activity against AVEFA, Found” value ([1]; L-Glufosinate 150 g ai/ha) was 0 and the “Herbicidal activity against COMBE, Found” value ([6]; L-Glufosinate 100 g ai/ha) was 0.

`COC[C@H](C)N(C(=O)CCl)c1c(C)csc1C` [Dimethenamid-P] was tested, and the “Herbicidal activity against KCHSC, Found” value ([7]; Dimethenamid-P 500 g ai/ha) was 0 and the “Herbicidal activity against KCHSC, Found” value ([7]; Dimethenamid-P 1000 g ai/ha) was 70.

bicyclopyrone was tested, and the “Herbicidal activity against COMBE, Found” value ([6]; Bicyclopyrone 1 g ai/ha) was 0, the “Herbicidal activity against COMBE, Found” value ([6]; Bicyclopyrone 2 g ai/ha) was 10 and the “Herbicidal activity against ECHCG, Found” value ([3]; Bicyclopyrone 1 g ai/ha) was 0. The “Herbicidal activity against ECHCG, Found” value ([3]; Bicyclopyrone 2 g ai/ha) was 0.
